The test system of one assay is rats. In words: Acute food intake in rats. In kind it is in vivo, rat. To be noted: single sc injection of 30 nmol/kg, relative to vehicle, mean ± SEM, n = 5–7 per group.
The target in the next assay is T1, rAMY3R (Rattus norvegicus, UniProt P32214+Q9JJ73).
T1 sequence (P32214 25-479 isoform P32214-2 limits assumed): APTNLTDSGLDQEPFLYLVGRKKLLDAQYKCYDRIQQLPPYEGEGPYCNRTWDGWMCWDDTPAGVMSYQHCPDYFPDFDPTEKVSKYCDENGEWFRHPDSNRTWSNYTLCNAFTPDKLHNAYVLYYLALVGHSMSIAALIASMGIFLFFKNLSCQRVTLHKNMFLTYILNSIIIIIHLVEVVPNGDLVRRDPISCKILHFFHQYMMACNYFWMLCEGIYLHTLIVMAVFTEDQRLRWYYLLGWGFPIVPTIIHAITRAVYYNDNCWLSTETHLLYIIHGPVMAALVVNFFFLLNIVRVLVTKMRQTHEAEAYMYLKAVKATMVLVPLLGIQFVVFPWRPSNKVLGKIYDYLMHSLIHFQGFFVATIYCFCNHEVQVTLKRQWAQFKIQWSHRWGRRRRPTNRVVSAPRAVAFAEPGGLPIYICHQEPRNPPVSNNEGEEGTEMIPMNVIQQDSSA
T1 sequence (Q9JJ73 23-147 partner): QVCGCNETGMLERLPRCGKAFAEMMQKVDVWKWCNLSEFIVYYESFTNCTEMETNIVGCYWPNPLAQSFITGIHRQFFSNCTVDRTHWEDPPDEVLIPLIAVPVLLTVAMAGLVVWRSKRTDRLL
In words: scintillation proximity binding assay, rAMY3R membranes. Details: expressed in transfected cells; host or cells: BHK tk-ts 13, transient co-transfection (FuGENE 6). For orientation: SPA uses beads or plates that emit light when radiolabelled molecules are held near them.

A further assay concerns the target T2, hAMY3R (Homo sapiens, UniProt O60896+P30988).
T2 sequence (P30988 25-474): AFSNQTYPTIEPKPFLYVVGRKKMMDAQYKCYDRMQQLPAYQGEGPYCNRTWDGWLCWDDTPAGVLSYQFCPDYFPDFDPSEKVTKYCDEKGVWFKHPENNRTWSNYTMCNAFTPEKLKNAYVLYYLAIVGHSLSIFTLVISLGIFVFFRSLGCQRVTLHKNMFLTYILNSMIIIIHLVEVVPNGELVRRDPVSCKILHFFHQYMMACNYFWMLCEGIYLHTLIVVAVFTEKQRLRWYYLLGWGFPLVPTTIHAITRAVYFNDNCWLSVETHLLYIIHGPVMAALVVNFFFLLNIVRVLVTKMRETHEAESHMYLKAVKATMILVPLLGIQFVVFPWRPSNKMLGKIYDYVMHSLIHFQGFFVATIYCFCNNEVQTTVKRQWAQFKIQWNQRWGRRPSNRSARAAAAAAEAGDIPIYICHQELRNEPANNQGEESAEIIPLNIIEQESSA
T2 sequence (O60896 24-148 partner): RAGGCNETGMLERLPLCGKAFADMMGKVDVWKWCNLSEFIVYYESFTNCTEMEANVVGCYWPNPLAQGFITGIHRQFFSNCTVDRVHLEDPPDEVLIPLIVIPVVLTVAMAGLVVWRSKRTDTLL
Put plainly: scintillation proximity binding assay, hAMY3R membranes. Further details: expressed in transfected cells; host or cells: BHK tk-ts 13, transient co-transfection; membranes for the SPA, whole cells for the species-specific assays.

[1] abbreviates: SPA binding assay, Tables S13 and S15.

We go through one compound from article PMC11284788, “NN1213 – A Potent, Long-Acting, and Selective Analog of Human Amylin” (Journal of Medicinal Chemistry, 2024).

`CC[C@H](C)[C@H](NC(=O)[C@H](C)NC(=O)CNC(=O)[C@H](Cc1ccccc1)NC(=O)[C@H](CC(N)=O)NC(=O)[C@@H]1CCCN1C(=O)[C@H](CO)NC(=O)[C@H](CO)NC(=O)[C@H](Cc1c[nH]cn1)NC(=O)[C@H](CCCNC(=N)N)NC(=O)[C@H](CC(C)C)NC(=O)[C@H](Cc1ccccc1)NC(=O)[C@H](CC(N)=O)NC(=O)[C@H](C)NC(=O)[C@H](CC(C)C)NC(=O)[C@H](CCCNC(=N)N)NC(=O)[C@H](CCC(N)=O)NC(=O)[C@@H](NC(=O)[C@H](C)NC(=O)[C@@H]1CSSC[C@H](NC(=O)[C@H](CCCCN)NC(=O)COCCOCCNC(=O)COCCOCCNC(=O)CC[C@H](NC(=O)CCCCCCCCCCCCCCCCCCC(=O)O)C(=O)O)C(=O)N[C@@H](CC(N)=O)C(=O)N[C@@H]([C@@H](C)O)C(=O)N[C@@H](C)C(=O)N[C@@H]([C@@H](C)O)C(=O)N1)[C@@H](C)O)C(=O)N1CCC[C@H]1C(=O)N[C@@H](CO)C(=O)N[C@@H](CO)C(=O)N[C@H](C(=O)N[C@@H](CC(N)=O)C(=O)N[C@H](C(=O)NCC(=O)N[C@@H](CO)C(=O)N[C@@H](CC(N)=O)C(=O)N[C@H](C(=O)N[C@@H](Cc1ccc(O)cc1)C(N)=O)[C@@H](C)O)C(C)C)[C@@H](C)O` [Peptide 10]: in the assay with rats, the “Acute food intake reduction 0–24 h” value was 22 ± 5% and the “Acute food intake reduction 24–48 h” value came to 1 ± 5%. The “rAMY3R pIC50” value on rAMY3R (setting [1]) stood at 8.52. In addition, the “ratio rCTR/rAMY3R” value on rAMY3R (ratio of binding IC50 values) came to 116. Also, the “hAMY3R pIC50” value on hAMY3R (setting [1]) was found to be 8.94. Also, at hAMY3R (ratio of binding IC50 values), the “ratio hCTR/hAMY3R” value is given as 90.
